Data published in PubChem BioAssay AID1053129 (The Scripps Research Institute Molecular Screening Center, 2014).
Active and inactive are the calls of the source. How the calls were made is not given here.

What follows are molecules tested against Fibrinogen beta chain (Homo sapiens) (UniProt P02675) (assay: Tn6 displacement potency at DD(E) complex – biochemical, fluorescence polarization, human fibrin, dose response, late-stage follow-up (AID 1053129)). Settings: FP, Tn6 cyclic peptide binding to DD(E).
Sequence of Fibrinogen beta chain (Homo sapiens) (P02675 whole entry, looked up): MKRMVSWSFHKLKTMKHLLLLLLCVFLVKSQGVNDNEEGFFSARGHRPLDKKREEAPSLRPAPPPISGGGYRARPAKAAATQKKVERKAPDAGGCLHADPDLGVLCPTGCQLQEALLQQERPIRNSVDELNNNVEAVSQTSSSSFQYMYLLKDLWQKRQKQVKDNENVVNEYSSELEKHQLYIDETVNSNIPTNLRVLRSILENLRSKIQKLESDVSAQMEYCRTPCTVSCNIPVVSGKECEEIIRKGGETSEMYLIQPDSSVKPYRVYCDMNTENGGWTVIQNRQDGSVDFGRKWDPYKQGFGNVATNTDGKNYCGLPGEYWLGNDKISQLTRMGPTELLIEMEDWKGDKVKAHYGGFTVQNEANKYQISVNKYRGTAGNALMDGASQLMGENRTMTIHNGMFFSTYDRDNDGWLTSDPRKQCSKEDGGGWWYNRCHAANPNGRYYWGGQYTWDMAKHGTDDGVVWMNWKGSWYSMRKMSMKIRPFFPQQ

Q: `Cc1cc2c(cc1S(=O)(=O)N1CCN(c3cccc(C)c3C)CC1)OCCN2C` was tested. Which IC50 did it give?
A: > 83.3 µM (inactive)

Q: `CCn1c(CSc2n[nH]c(N)n2)nc2cc(C(=O)O)ccc21` was tested. Which IC50 did it give?
A: 7.39 µM

Q: How did the IC50 turn out when `O=C(O)CCCNc1cc(N2CCN(C(=O)c3ccco3)CC2)c2noc3c2c1C(=O)c1ccccc1-3` was run?
A: 6.78 µM

Q: With `Cc1cc(C)c(S(=O)(=O)NCCn2c(C)cc3ccccc32)c(C)c1` as the molecule, how does the IC50 read?
A: > 83.3 µM (inactive)

Q: For `COc1ccc2ccccc2c1C(O)c1nccn1C` (stereo not given), which IC50 is on record?
A: > 83.3 µM (inactive)

Q: `NS(=O)(=O)c1ccc(NS(=O)(=O)c2ccc(NC(=O)c3ccc(-c4ccccc4)cc3)cc2)cc1` was tested. Which IC50 did it give?
A: 3.43 µM

Q: `N#CC1=C(N)Oc2ccc3ccc(O)cc3c2C1c1ccsc1` (stereo not given) was tested. Which IC50 did it give?
A: 3.5 µM

Q: With `CN1C(=O)NC(c2ccccc2[N+](=O)[O-])C2=C1CCCC2=O` (stereo not given) as the molecule, how does the IC50 read?
A: inactive

Q: How did the IC50 turn out when `Cc1cc2cc(CNC(=O)c3ccc(S(=O)(=O)N4CCOCC4)cc3)ccc2n1C` was run?
A: > 83.3 µM (inactive)

Q: Which IC50 does the source give for `Cc1cc2cc(CNS(=O)(=O)c3ccc4ccccc4c3)ccc2n1C` here?
A: > 83.3 µM (inactive)
